# Read-outs that look alike come from different tables or passages of the source.
# Columns and labels:
# norepinephrine uptake = test system: norepinephrine uptake; design: Amine Uptakes Blocking Activity Norepinephrine: key to the marks not given beside the values; details: cited from earlier work; for Amine Uptakes Blocking Activity Norepinephrine: Table 3; for Interaction and blocking activity at the norepinephrine receptor site: in words, text commenting on Table 6
# [1] = cited from earlier work
# dopamine receptors = details: in words, footnote 3 and text on Table 6; cited from earlier work
# dopamine uptake = details: in words, footnote 5 of Table 6; cited from earlier work
# [2] = test system: canine affective aggression behavior; assay: Case histories: treatment of household dogs exhibiting canine affective aggression
# From the text: The clinical diagnosis was affective aggression behavior which was dominance aggression and/fear aggression.
# [3] = Table 6, parent compound plus active metabolite
# [4] = Case 4, Cocker Spaniel, orally 25 mg daily, after two months
compound,measurement,setting,value
CN(C)CCC=C1c2ccccc2CCc2ccccc21 [Amitriptyline],Amine Uptakes Blocking Activity Norepinephrine,norepinephrine uptake,++
same,Interaction and blocking activity at the norepinephrine receptor site,norepinephrine uptake,modest or slight
same,Half-life,[1]; Table 3,31 to 46 h
same,Therapeutic Plasma Level,"[1]; Table 3, marked ^1, footnote printed only under Table 6: parent compound plus active metabolite",110 to 250 ng/mL
same,Half-life,[1]; Table 6,31 to 46 h
same,Therapeutic plasma level,[1]; [3],110 to 250 ng/mL
same,Time to Reach Steady State,[1]; in vivo,4 to 10 days
same,Time to reach steady state,[1]; in vivo,4 to 10 days
"Clc1ccc2c(c1)C(N1CCNCC1)=Nc1ccccc1O2 [Amoxapine, amoxapine]",Dopamine receptor blockade / interaction,dopamine receptors,blocks dopamine receptors
same,Half-life,"[1]; human, in vivo",8 h
same,Therapeutic plasma level,[1]; in vivo,200 to 500 ng/mL
same,Time to reach steady state,[1]; in vivo,2 to 7 days
"CC(NC(C)(C)C)C(=O)c1cccc(Cl)c1 (stereo not drawn) [Bupropion, bupropion]",Dopamine uptake inhibition,dopamine uptake,Inhibits dopamine uptake
same,Half-life,[1]; Table 6,8 to 24 h
same,Time to reach steady state,[1]; Table 6,1.5 to 5 days
"CN(C)CCCN1c2ccccc2CCc2ccc(Cl)cc21 [Clomipramine, 3-chloro-10,11-dihydro-N,N-dimethyl-5H-benzo-[b,f]azepine-5-propamine]",Amine Uptakes Blocking Activity Norepinephrine,norepinephrine uptake,++
same,Interaction and blocking activity at the norepinephrine receptor site,norepinephrine uptake,modest or slight
same,Owner-noted change in aggressive behavior,"[2]; Case 1, Australian Shepherd, 25 mg daily, after one week's treatment",slight improvement
same,Improvement in aggression behavior,"[2]; Case 1, Australian Shepherd, 25 mg daily, after several weeks' treatment",maintained
same,Owner-rated improvement of behavior,"[2]; Case 1, Australian Shepherd, 25 mg daily, three weeks after start",50-75%
same,Owner rating of behavior,"[2]; Case 2, Lhasa Apso, dominance and territorial aggression, approx. 1 mg/kg twice a day for one week then approx. […] twice a day, after two weeks",slightly improved
same,Persistence of improvement in aggressive behavior,"[2]; Case 2, Lhasa Apso, through the eight weeks following termination of administration",sustained
same,Improvement in behavior,"[2]; Case 3, German Shepherd, fear and territorial aggression, once a day slightly less than 1 mg/kg, after two weeks",Moderate improvement
same,Improvement in behavior,"[2]; Case 3, German Shepherd, once a day slightly less than 1 mg/kg, eight weeks after initiation",moderate improvement
same,Owner-rated improvement in behavior,"[2]; Case 4, Cocker Spaniel, dominance/fear aggression, orally 25 mg daily, after one week",25-50%
same,Owner-reported behavior,"[2]; Case 4, Cocker Spaniel, orally 25 mg daily, after one month",much calmer on the street
same,Improvement in behavior,[2]; [4],50-75%
same,Owner-reported behavior,[2]; [4],essentially non-aggressive
same,Owner-reported behavior,"[2]; Case 4, Cocker Spaniel, orally 25 mg daily, after two weeks",fine in the house
same,Overall effectiveness for treatment of interspecific affective aggression in dogs,"[2]; conclusion from the four case histories, no behavior modification therapy",very effective
same,Therapeutic Plasma Level,[1]; in vivo,80 to 100 ng/mL
same,Therapeutic plasma level,[1]; in vivo,80 to 100 ng/mL
same,Time to Reach Steady State,[1]; in vivo,7 to 14 days
same,Time to reach steady state,[1]; in vivo,7 to 14 days
"CNCCCN1c2ccccc2CCc2ccccc21 [Desipramine, desipramine]",Half-life,"[1]; human, in vivo",12 to 24 h
same,Therapeutic plasma level,[1]; in vivo,125 to 300 ng/mL
same,Time to reach steady state,[1]; in vivo,2 to 11 days
"CN(C)CCC=C1c2ccccc2COc2ccccc21 [Doxepin, doxepin]",Half-life,"[1]; human, in vivo",8 to 24 h
same,Time to reach steady state,[1]; in vivo,2 to 8 days
"CNCCC(Oc1ccc(C(F)(F)F)cc1)c1ccccc1 (stereo not drawn) [Fluoxetine, fluoxetine]",Time to reach steady state,[1]; in vivo,2-4 weeks
"CN(C)CCCN1c2ccccc2CCc2ccccc21 [Imipramine, imipramine]",Time to reach steady state,[1]; in vivo,2 to 5 days
"CNCCCC12CCC(c3ccccc31)c1ccccc12 [Maprotiline, maprotiline]",Time to reach steady state,[1]; Table 6,6 to 10 days
same,Therapeutic plasma level,[1]; [3],200 to 300 ng/mL
same,Half-life,"[1]; human, in vivo",21 to 25 h
"CNCCC=C1c2ccccc2CCc2ccccc21 [Nortriptyline, 3-(10,11-Dihydro-5H-dibenzo[a,d]cyclohepten-5-ylidene)-N-methyl-1-propamine]",Half-life,[1]; Table 3,18 to 44 h
same,Time to Reach Steady State,[1]; Table 3,4 to 19 days
same,Half-life,[1]; Table 6,18 to 44 h
same,Time to reach steady state,[1]; Table 6,4 to 19 days
"Fc1ccc([C@@H]2CCNC[C@H]2COc2ccc3c(c2)OCO3)cc1 [Paroxetine, paroxetine]",Half-life,[1]; Table 6,10 to 24 h
same,Time to reach steady state,[1]; in vivo,7 to 14 days
"CNCCCC1c2ccccc2C=Cc2ccccc21 [Protriptyline, protriptyline]",Half-life,"[1]; human, in vivo",67 to 89 h
same,Therapeutic plasma level,[1]; in vivo,100 to 200 ng/mL
same,Time to reach steady state,[1]; in vivo,14 to 19 days
"CN[C@H]1CC[C@@H](c2ccc(Cl)c(Cl)c2)c2ccccc21 [Sertraline, sertraline]",Time to reach steady state,[1]; in vivo,7 days
"CC(CN(C)C)CN1c2ccccc2CCc2ccccc21 (stereo not drawn) [Trimipramine, trimipramine]",Half-life,[1]; Table 6,7 to 30 h
same,Time to reach steady state,[1]; in vivo,2 to 6 days
CC(C)NCC(O)COc1cccc2ccccc12 (stereo not drawn) [inclerol],Effect on aggressive behavior,"[2]; Case 1, Australian Shepherd, 14-year old castrated male, beta-blocker for one week",only increased his aggressive behavior
